These results are taken from patent US7547708B2, “N-sulfamoyl-N′-benzopyranpiperidine compounds and uses thereof” (Solvay Pharmaceuticals, Inc., priority 2005, dated 2009).

Broadly, the melting point is the temperature of the solid-liquid transition. A word on the IC50: it is the point on the concentration scale where inhibition reaches its midpoint.

Data set [1] deals with T1, human carbonic anhydrase isoenzyme II (hCA II) (Homo sapiens, UniProt P00918).
T1 construct: human carbonic anhydrase isoenzyme II from erythrocytes (Sigma-Aldrich); purchased Sigma-Aldrich; host or cells: human erythrocytes (natural source)
Description: In vitro inhibition of human carbonic anhydrase isoenzyme II (dansylamide fluorescence). In kind it is binding. To be noted: hCA II from erythrocytes 10^-7 M, dansylamide 2.25x10^-6, 60 min at 37° C., single measurements; read-out: hCA II inhibiting effect in vitro, IC50. The procedure: 1. In vitro Inhibition of Human Carbonic Anhydrase Isoenzyme II (hCA II)
The test compounds of general Formula I in 96 well microplates were diluted with aqua bidest by using an automatic pipettor (CyBiWell®). From the different dilution plates, aliquots of 20 μl were transferred to the 96 well black assay plates with a pipetting station (Tecan Genesis®). In a second step, 148 μl of potassium phosphate buffer (20 mM, pH 7.4) was added, and as a third step, 20 μl of enzyme solution (1 μM human carbonic anhydrase isoenzyme II from erythrocytes (Sigma-Aldrich), dissolved in potassium phosphate buffer) incubated for 60 min at room temperature and the fluorescence signal (Tecan Ultra® fluorescence reader; excitation wavelength: 280 nm; emission wavelength: 465 nm) read at the end of the preincubation period (FLU-1). After the preincubation time, 20 μl of aqueous dansylamide solution (1 mM dansylamide (Sigma-Aldrich), dissolved in hydrochloric acid) were added and the fluorescence signal read every 10 min for a period of 60 min at 37° C. For calculation, the fluorescence data of the time point 60 min (FLU-2) were used. The total volume of assay mixture amounted to 208 μl. The final concentration of carbonic anhydrase II was 10^−7 M/L, of dansylamide 2.25×10^−6 and of compounds from 10^−8 M/L up to 10^−5 M/L. Final concentration of DMSO as compound solvent was 0.1 mM. Each microplate also contained blanks without compound and enzyme, controls without compound and ethoxzolamide (final concentration 5×10^−8 M/L). All data reflect single measurements. Data were expressed as % inhibition after calculation by the formula: % inhibition=100((1−(FLU-2cpd−FLU-2blank−FLU-1cpd+FLU-1blank)/(FLU-2control−FLU-2blank−FLU-1control−FLU-1blank))
The % inhibition data for each compound and the respective final concentrations were used for IC50 calculations by using the Prism 4 software. Concentration action figures were calculated by applying the Prism algorithm for nonlinear regression (curve-fit): sigmoidal dose response with variable slope and the constraints: top: 100 and bottom 0.

Data set [2] deals with C57BI/6 mice. Description: Acute in vivo food intake test in mice. To be noted: 24 h food intake, C57BI/6 mice on high caloric diet, 100 mg/kg/day by oral gavage in two half doses. The procedure:
2. Acute in vivo Food Intake Test in Mice
The studies were carried out in male or female C57BI/6 mice (n=8-12 per group). The mice were kept on an inverted 12/12 h light/dark cycle (lights on 22:00). They were allowed food (high caloric diet) and water ad libitum. Food intake and water consumption was measured daily. The test compound of general Formula I was suspended in 1% methylcellulose in water and 2% (v/v) of Poloxamer 188 (Lutrol F68®) and administered by oral gavage at a dose of 100 mg/kg/day. One half of the dose was administered at 7.00-9.00 h; the remaining half of the dose was administered between 15.00-15.30 h.
In the test model described above, the test substances caused a decrease of the animals' 24 h food intake to the percentages of food intake when compared to control as given in the following Table 2.

The structures appear in SMILES notation.

The compound `NS(=O)(=O)N1CCC2(CC1)CC(=O)c1ccccc1O2` [Example 1] had a melting point of 172 to 174 °C. The IC50 in data set [1] is 6.6 µM. Besides, the “food intake [% of control]” value in data set [2] is 83 % of control.

As to `COc1ccc2c(c1)C(=O)CC1(CCN(S(N)(=O)=O)CC1)O2` [Example 3], the melting point is 172 to 177 °C. For the same compound, in data set [1], the IC50 is 7.7 µM.

With `NS(=O)(=O)N1CCC2(CC1)CC(=O)c1cc(Cl)ccc1O2` [Example 4], the IC50 in data set [1] is 6.4 µM.
